The record followed here is patent publication US20220054448A1, “NOVEL POLYMETH[…] FOR SKELETAL MUSCLE MODULATION, METHODS AND USES THEREOF” (SOCIETE DES PRODUITS NESTLE S.A., priority 2018, published 2022).

The assay has as its system Muscle Stem Cells. In words: In vivo muscle regeneration after intramuscular cardiotoxin injury. Conditions: mouse, oral gavage 100 mg/kg body weight once a day from one week before cardiotoxin injury; muscles harvested 5 days after injury; versus water control. As for the experimental part:
FIG. 5—In Vivo Muscle Regeneration: Measurement of Early Phase Expansion and Differentiation of Muscle Stem Cells
Early phase of expansion and subsequent phase of myogenic differentiation of Muscle Stem Cells were evaluated.
Data are expressed as number of cells per area of injured muscle.
The size of each newly formed myofiber has been measured based on the expression of the eMHC and laminin that allow to recognize and delineate these nascent myofibers. Results are shown as mean myofiber cross-sectional area (μm^2).
In order to reproduce the physiological process of muscle regeneration that occurs in adult skeletal muscles in response to injury or disease, we performed an intramuscular injection of cardiotoxin into mouse hindlimb muscles. One week prior to the induction of the muscle injury, mice were given by oral gavage compounds of the invention; either cirsimaritin or xanthomicrol at 100 mg/kg body weight and water was used as a control. […] Several myogenic markers were then measured. […]
In particular, this is shown be the early phase of expansion evaluated by counting the number of Pax7+ cells shown in FIG. 5A and the subsequent phase of myogenic differentiation of Muscle Stem Cells measured by counting the number of myogenin+ cells shown in FIG. 5B, respectively. Data were expressed as number of cells per arear of injured muscle. […]

Molecules are shown by their SMILES.

As for `COc1cc2oc(-c3ccc(O)cc3)cc(=O)c2c(O)c1OC` [Cirsimaritin, 5,4′-Dihydroxy-6,7-dimethoxyflavone], the “in vivo muscle regeneration process (number of Pax7+ cells, number of myogenin+ cells, size of newly formed myofibers)” value was “promote the in vivo muscle regeneration process”.
Consider `COc1c(OC)c(O)c2c(=O)cc(-c3ccc(O)cc3)oc2c1OC` [Xanthomicrol, 5,4′-Dihydroxy-6,7,8-trimethoxyflavone], for which the “in vivo muscle regeneration process (number of Pax7+ cells, number of myogenin+ cells, size of newly formed myofibers)” value is listed as “promote the in vivo muscle regeneration process”.
